According to patent US4256731A, “Oral Compositions” (priority 1979, dated 1981):

Experiment: in vitro stain assay: inhibition of alexidine dihydrochloride mediated stain on saliva-coated hydroxylapatite, 5% tannic acid as staining agent
Conditions: tested in triplicate, pH and acid:alexidine mole ratio as listed per formulation
Description: Methods: The substrate for the in vitro stain assay was a saliva-coated hydroxylapatite and the staining agent was 5% tannic acid. Each formulation was tested in triplicate.

SMILES	% Inhibition of Alexidine . 2HCl Mediated Stain
O=C(O)CC(O)(CC(=O)O)C(=O)O [Citric Acid]	32%
N[C@@H](CCC(=O)O)C(=O)O [Glutamic Acid]	40%
O=C(O)/C=C/C(=O)O [Fumaric Acid]	44%
N[C@@H](CC(=O)O)C(=O)O [Aspartic Acid]	34%
Nc1ccc(C(=O)O)cc1 [p-Aminobenzoic Acid]	22%
